Where two headings read alike, the source gives them in different places.
What was measured:
[1] = system: patients with chronic constipation; assay: Weekly diary assessments (satisfaction with bowel habits, bothersome constipation, abdominal bloating, abdominal pain, global constipation relief) after 12 weeks, ANCOVA; assay type: in vivo, human; conditions: for weekly diary assessments, outcome: 6-mg bid vs placebo, 12 weeks; for Bothersome abdominal bloating, LS Mean Value / Bothersome abdominal pain, LS Mean Value / Bothersome constipation, LS Mean Value / Global constipation relief, LS Mean Value / Satisfaction with bowel habit, LS Mean Value: 12-wk, tegaserod 6-mg bid, lower value = better response
Description: Clinical assessments. […] The primary efficacy endpoint evaluated was the increase of 1 or more CSBM/week over baseline after 4 weeks of treatment. A secondary endpoint evaluated in this genotyping study was RESP12, the increase of 1 of more CSBM/week over baseline after 12 weeks of treatment. Patients were classified as responders if they met these criteria and had completed at least 7 days of treatment. Additional secondary efficacy assessments were evaluated based on the weekly diary assessments, such as bothersome constipation, bothersome abdominal pain, and satisfaction with bowel habits at the end of the 12-week treatment period (using the baseline value as a co-variant for analysis). Additional secondary endpoints. In addition to the above assessments, 5 additional secondary efficacy endpoints were evaluated from the weekly diary assessments. These included the weekly changes in satisfaction with bowel habits, bothersome constipation, bothersome abdominal bloating, bothersome abdominal pain, and global constipation relief. TABLE 13 presents the results of analysis comparing the overall change in these parameters at the end of 12 weeks of treatment by treatment (tegaserod 6-mg bid vs. placebo) and whether they had 1 or more of the 12 “high responder” SNPs. An ANCOVA model was applied using the baseline value of these assessments as a quantitative co-variant.

[2] = system: patients with chronic constipation; assay: Response by serotonin transporter (SLC6A4) promoter insertion/deletion genotype; assay type: in vivo, human; conditions: for OR: tegaserod vs placebo
From the text: Two major classes of insertion/deletion polymorphisms have been characterized for the SLC6A4 gene, one in intron 2 and another in the promoter region. SLC6A4 is the serotonin transporter gene, also know as SERT or HTT. Camilleri and colleagues reported that SLC6A4 promoter insertion/deletion polymorphism was associated with colonic transit response following treatment with the serotonin 5-HT3 receptor antagonist alosetron. Camilleri M et al., Gastroenterology; 123 (2):425-32 (2002). […] The overall response rates for C16-C16 were 48% for tegaserod and 21% for placebo (OR=3.51, 95% CI: 1.67-7.41) compared to the C14-C14 homozygotes at 45% for tegaserod and 27% for placebo (OR=2.3, 95% CI: 0.93-5.69) and C14-C16 heterozygotes at 43% for tegaserod and 28% for placebo (OR=1.95; 95% CI: 1.12-3.41). Within a given treatment group, there was no statistically significant difference between response rates between the different genotypes.

[3] = system: healthy volunteers, patients with IBS-C, patients with chronic constipation; conditions: cited from earlier work

For `[H]/N=C(/NCCCCC)N/N=C/c1c[nH]c2ccc(OC)cc12` [tegaserod, Tegaserod], the “weekly diary assessments, outcome” value ([1]; all patients combined) was “better outcome compared to placebo”, the “weekly diary assessments, outcome” value ([1]; individuals with 1 or more of the 12 SNPs, all 5 assessments) was “significantly greater responses to tegaserod than placebo” and the “weekly diary assessments, outcome” value ([1]; individuals with none of the 12 SNPs) was “no treatment difference”. The “Bothersome abdominal bloating, LS Mean Value” (“Bothersome abdominal bloating” for short) ([1]; 0 of 12 SNPs) was 2.18, the “Bothersome abdominal pain, LS Mean Value” ([1]; 0 of 12 SNPs) was 1.90 and the “Bothersome constipation, LS Mean Value” ([1]; 0 of 12 SNPs) was 2.25. The “Global constipation relief, LS Mean Value” (“Global constipation relief” below) ([1]; 0 of 12 SNPs) was 2.20, the “Satisfaction with bowel habit, LS Mean Value” (“Satisfaction with bowel habit” below) ([1]; 0 of 12 SNPs) was 2.48 and the “Bothersome abdominal bloating” value ([1]; >=1 of 12 SNPs) was 2.00. For the same compound, the “Bothersome abdominal pain, LS Mean Value” ([1]; >=1 of 12 SNPs) was 1.77, the “Bothersome constipation, LS Mean Value” ([1]; >=1 of 12 SNPs) was 1.87 and the “Global constipation relief” value ([1]; >=1 of 12 SNPs) was 1.95. For the same compound, the “Satisfaction with bowel habit” value ([1]; >=1 of 12 SNPs) was 2.17, the “Bothersome abdominal bloating” value ([1]; All geno) was 2.09 and the “Bothersome abdominal pain, LS Mean Value” ([1]; All geno) was 1.84. The “Bothersome constipation, LS Mean Value” ([1]; All geno) was 2.07, the “Global constipation relief” value ([1]; All geno) was 2.08 and the “Satisfaction with bowel habit” value ([1]; All geno) was 2.33. The overall response rate ([2]; serotonin transporter promoter polymorphism C14-C14 homozygotes) was 45%, the overall response rate ([2]; serotonin transporter promoter polymorphism C14-C16 heterozygotes) was 43% and the overall response rate ([2]; serotonin transporter promoter polymorphism C16-C16 homozygotes) was 48%. The OR ([2]; C14-C14 homozygotes) was 2.3, the OR ([2]; C14-C16 heterozygotes) was 1.95 and the OR ([2]; C16-C16 homozygotes) was 3.51. The colonic transit time ([3]; healthy volunteers (Degen et al. 2001)) was “significantly increase colonic transit time”, the colonic transit time ([3]; patients with IBS-C (Prather et al. 2000)) was “significantly increase colonic transit time” and the colonic transit time ([3]; patients with chronic constipation (Johanson et al. 2004)) was “significantly increase colonic transit time”.

Source: patent publication US20090118350A1, “Biomarkers for Identifying Efficacy of Tegaserod in Patients with Chronic Constipation” (priority 2005, published 2009)
